In patent US5391817A, “Biaryl phospholipase A2 inhibitors” (Bristol-Myers Squibb, priority 1993, dated 1995):

Target: T1, PLA2 (Homo sapiens, UniProt P14555)
T1 construct: The enzyme is isolated from human platelets; from tissue; host or cells: human platelets
T1 sequence (P14555 21-144): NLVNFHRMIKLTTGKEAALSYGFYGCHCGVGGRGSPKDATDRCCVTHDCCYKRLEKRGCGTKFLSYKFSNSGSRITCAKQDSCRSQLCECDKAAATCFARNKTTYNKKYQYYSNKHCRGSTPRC
Assay: PLA2 Inhibition Assay (14C-oleate labeled E. coli membrane substrate)
Assay type: biochemical
Details: 100 μM; PLA2 from human platelets; pH 7, 37° C.
Experimental: The method used is similar to that reported by Franson, et al. [Jesse, R. L. and Franson R. C., Biochim. Biophys. Acta 575: 467-470 (1979); Franson, R. C., Patriarca, P., and Elsback, P., J. Lipid Res. 15: 380-388 (1974)]. The enzyme is isolated from human platelets. The substrate used consists of ^14 C-oleate labeled Escherichia coli membranes. E. coli cells are grown in the presence of ^14 C-oleic acid and then autoclaved to prepare the membranes.
Various concentrations of test compounds are preincubated with PLA2 (3.6 mg/mL in a buffer consisting of 25 mM HEPES (pH 7)), 150 mM NaCl, 5.0 mM CaCl2, and 10% DMSO (v/v, test compound solvent) at 37° C. for 7 minutes. The E. coli substrate is then added (0.1 mM phospholipid, 0,005 mCi ^14 C) and the reaction is then incubated at 37° C. for 30 minutes. The reaction is then terminated by the addition of 1.9 mL tetrahydrofuran (THF), and the entire solution is applied to a solid-phase extraction column (aminopropyl resin, Analytichem). The column is rinsed with an additional 1 mL of THF. The free fatty acid product of the reaction is then eluted from the column with 1 mL 2% acetic acid in THF and collected in a scintillation vial. The amount of free fatty acid product is determined by liquid scintillation counting. The amount of inhibition produced by the test compound is calculated by comparing the counts obtained in the presence of the compound to those obtained in its absence (solvent only). Background counts were determined by performing incubations in the absence of enzyme.
Percent inhibition is determined by the equation: [formula]

Compared with `C/C(=C\c1cccc(C(=O)O)c1-c1cccc(C(=O)O)c1)c1ccc2c(c1)C(C)(C)CCC2(C)C` [Structure 11, (E)-[2-(5,6,7,8-tetrahydro-5,5,8,8-tetramethyl-2-naphthalenyl)-1-propenyl]-[1,1'-biphenyl]-6,3'-dicarboxylic acid], `C/C(=C\c1cccc(CC(=O)O)c1-c1cccc(C(=O)O)c1)c1ccc2c(c1)C(C)(C)CCC2(C)C` [Structure 28b, 3'-carboxy-(E)-2-[(5,6,7,8-tetrahydro-5,5,8,8,-tetramethyl-2-naphthalenyl)-1-propenyl]-[1,1'-biphenyl]-6-acetic acid] is higher in inhibition at 100 µM: 80% for the first, 96% for the second.

Compared with `CCCCCCCCCCOc1ccc(COc2cccc(C(=O)O)c2-c2cccc(C(=O)O)c2)cc1OCCCCCCCCCC` [Structure 14a, 2-[(3,4-bisdecyloxy)phenyl]methoxy-[1,1'-biphenyl]-6,3'-dicarboxylic acid], `CCCCCOc1ccc(COc2cccc(C(=O)O)c2-c2cccc(C(=O)O)c2)cc1OCCCCC` [Structure 14c, 2-[(3,4-bispentyloxy)phenyl]methoxy-[1,1'-biphenyl]-6,3'-dicarboxylic acid] is lower in inhibition at 100 µM: 99% for the first, 53% for the second.

Compared with `CC(C)=CCOc1ccc(COc2cccc(C(=O)O)c2-c2cccc(C(=O)O)c2)cc1OCC=C(C)C` [Structure 14b, 2-[3,4-bis(3-methyl-2-butenyloxy)phenyl]methoxy-[1,1'-biphenyl]-6,3'-dicarboxylic acid], `CC(C)=CCOc1ccc(COc2cccc(CCC(=O)O)c2-c2cccc(C(=O)O)c2)cc1OCC=C(C)C` [Structure 37a, 2-[3,4-bis(3-methyl-2-butenyloxy)phenyl]methoxy-3'-carboxy-[1,1'-biphenyl]-6-propanoic acid] is higher in inhibition at 100 µM: 20% for the first, 55% for the second.

First: O=C(O)c1cccc(-c2c(OCc3ccc(OC4CCCC4)c(OC4CCCC4)c3)cccc2C(=O)O)c1 [Structure 14d, 2-[(3,4-biscyclopentyloxy)phenyl]methoxy-[1,1 'biphenyl]-6,3'-dicarboxylic acid]
Second: O=C(O)Cc1cccc(OCc2ccc(OC3CCCC3)c(OC3CCCC3)c2)c1-c1cccc(C(=O)O)c1 [Structure 30b, 2-[(3,4-biscyclopentyloxy)phenyl]methoxy-3'-carboxy-[1,1'-biphenyl]-6-acetic acid]
The inhibition at 100 µM of the first is lower: 73% for the first, 79% for the second.

Going from `CCCCCOc1ccc(COc2cccc(C(=O)O)c2-c2ccccc2)cc1O` [Structure 14e, 2-[(3-hydroxy-4-pentyloxy)phenyl]methoxy-[1,1 '-biphenyl]-6-carboxylic acid] to `CCCCCOc1ccc(COc2cccc(C(=O)O)c2-c2ccccc2)cc1OC(C)=O` [Structure 14f, 2-[(3-acetoxy-4-pentyloxy)phenyl]methoxy-[1,1'-biphenyl]-6-carboxylic acid], the inhibition at 100 µM falls from 34% to 30%.

First: COc1cc(COc2cccc(C(=O)O)c2-c2ccccc2)ccc1C12CC3CC(CC(C3)C1)C2 [Structure 14g, 2-[4-(1-adamantyl)-3-methoxyphenyl]methoxy-[1,1'-biphenyl]-6-carboxylicacid]
Second: COc1cc(COc2cccc(C(=O)O)c2-c2cccc(C(=O)O)c2)ccc1C12CC3CC(CC(C3)C1)C2 [Structure 14h, 2-[4-(1-adamantyl)-3-methoxyphenyl]methoxy-[1,1,-biphenyl]-6,3'-dicarboxylic acid]
The inhibition at 100 µM of the first is lower: 44% for the first, 62% for the second.

Compared with `CCCCCOc1ccc(COc2cccc(C(=O)O)c2-c2ccccc2)cc1OCCCCC` [Structure 14i, 2-[(3,4-bispentyloxy)phenyl]methoxy-[1,1'-biphenyl]-6-carboxylic acid], `CCCCCOc1ccc(COc2cccc(C(=O)O)c2-c2cccc(C(F)(F)F)c2)cc1OCCCCC` [Structure 14j, 2-[(3,4-bispentyloxy)phenyl]methoxy-[1,1'-biphenyl]-3'-trifluoromethyl-6-carboxylic acid] is lower in inhibition at 100 µM: 99% for the first, 98% for the second.

`CCCCCCCCCCOc1ccc(COc2cccc(C(=O)O)c2-c2ccccc2)cc1` [Structure 14k, 2-[(4-decyloxy)phenyl]methoxy-[1,1'-biphenyl]-6-carboxylic acid] and `CCCCCCCCCCOc1ccc(COc2cccc(CC(=O)O)c2-c2cccc(C(=O)O)c2)cc1` [Structure 30c, 3'-carboxy-2-[4-decyloxyphenyl]methoxy-[1,1'-biphenyl]-6-acetic acid] are the same in inhibition at 100 µM: 99% for the first, 99% for the second.

`CCOC(=O)c1cccc(-c2c(OCc3ccc4c(c3)C(C)(C)CCC4(C)C)cccc2C(=O)O)c1` [Structure 14l, 2-(5,6,7,8-tetrahydro-5,5,8,8-tetramethyl-2-naphthalenyl)methoxy-[1,1'-biphenyl]-6,3'-dicarboxylic acid, 3'-ethyl ester] and `CC1(C)CCC(C)(C)c2cc(COc3cccc(C(=O)O)c3-c3cccc(C(=O)O)c3)ccc21` [Structure 14m, 2-(5,6,7,8-tetrahydro-5,5,8,8-tetramethyl-2-naphthalenyl)methoxy-[1,1'-biphenyl]-6,3'-dicarboxylic acid] are the same in inhibition at 100 µM: 54% for the first, 54% for the second.

First: CC1(C)CCC(C)(C)c2cc(COc3cccc(C(=O)O)c3-c3ccccc3)ccc21 [Structure 14n, 2-(5,6,7,8-tetrahydro-5,5,8,8-tetramethyl-2-naphthalenyl)methoxy-[1,1'-biphenyl]-6-carboxylic acid]
Second: CC1(C)CCC(C)(C)c2cc(COc3cccc(CC(=O)O)c3-c3ccccc3)ccc21 [Structure 30e, 2-(5,6,7,8-tetrahydro-5,5,8,8-tetramethyl-2-naphthalenyl)methoxy-[1,1'-biphenyl]-6-acetic acid]
The inhibition at 100 µM of the first is higher: 90% for the first, 59% for the second.

Going from `CC(C)(C)c1ccc(-c2c(OCc3ccc4c(c3)C(C)(C)CCC4(C)C)cccc2C(=O)O)cc1` [Structure 14o, 2-(5,6,7,8-tetrahydro-5,5,8,8-tetramethyl-2-naphthalenyl)methoxy-[1,1'-biphenyl]-4'-(1,1-dimethylethyl)-6-carboxylic acid] to `CC1(C)CCC(C)(C)c2cc(COc3cccc(C(=O)O)c3-c3ccc(CCO)cc3)ccc21` [Structure 14p, 2-(5,6,7,8-tetrahydro-5,5,8,8-tetramethyl-2-naphthalenyl)methoxy-4'-(2-hydroxy-1-ethyl)-[1,1'-biphenyl]-6-carboxylic acid], the inhibition at 100 µM falls from 99% to 88%.

Compared with `CC1(C)CCC(C)(C)c2cc(COc3cccc(C(=O)O)c3-c3cccc(CC(=O)O)c3)ccc21` [Structure 14q, 6-carboxy-2-[5,6,7,8-tetrahydro-5,5,8,8-tetramethyl-2-naphthalenyl]methoxy-[1,1'-biphenyl]-3'-acetic acid], `CC1(C)CCC(C)(C)c2cc(COc3cccc(CC(=O)O)c3-c3cccc(C(=O)O)c3)ccc21` [Structure 30f, 3'-carboxy-2-(5,6,7,8-tetrahydro-5,5,8,8-tetramethyl-2-naphthalenyl)methoxy-[1,1'-biphenyl]-6-acetic acid] is higher in inhibition at 100 µM: 72% for the first, 80% for the second.

Compared with `O=C(O)Cc1cccc(/C=C/c2ccccc2)c1-c1cccc(C(=O)O)c1` [Structure 28a, (E) 2-styryl-6-carboxymethyl-1,1'-biphenyl-3'-carboxylic acid], `CC1(C)CCC(C)(C)c2cc3cc(-c4cccc(CC(=O)O)c4-c4cccc(C(=O)O)c4)ccc3cc21` [Structure 28c, 3'-carboxy-2-[(1,2,3,4-tetrahydro-1,1,4,4-tetramethyl)-6-anthracenyl]-[1,1'-biphenyl]-6-acetic acid] is higher in inhibition at 100 µM: 28% for the first, 93% for the second.

Going from `CCCCCOc1ccc(COc2cccc(CC(=O)O)c2-c2cccc(C(=O)O)c2)cc1OCCCCC` [Structure 30a, 2-[(3,4-bispentyloxy)phenyl]methoxy-3'-carboxy-[1,1'-biphenyl]-6-acetic acid] to `CCCCCOc1ccc(COc2cccc(CCC(=O)O)c2-c2cccc(C(=O)O)c2)cc1OCCCCC` [Structure 37c, 2-[3,4-bis (pentyloxy)phenyl]methoxy-3'-carboxy-[1,1'-biphenyl]-6-propanoic acid], the inhibition at 100 µM falls from 96% to 59%.

Going from `COc1cc(COc2cccc(CC(=O)O)c2-c2cccc(C(=O)O)c2)ccc1C12CC3CC(CC(C3)C1)C2` [Structure 30d, 3'-carboxy-2-[4-(1-adamantyl)-3-methoxyphenyl]methoxy-[1,1'-biphenyl]-6-acetic acid] to `CC1(C)CCC(C)(C)c2cc(COc3cccc(CCC(=O)O)c3-c3cccc(C(=O)O)c3)ccc21` [Structure 37d, 3'-carboxy-2-[5,6,7,8-tetrahydro-5,5,8,8-tetramethyl-2-naphthalenyl]methoxy-[1,1'-biphenyl]-6-propanoic acid], the inhibition at 100 µM falls from 97% to 54%.

`O=C(O)CCc1cccc(OCc2ccc(OC3CCCC3)c(OC3CCCC3)c2)c1-c1cccc(C(=O)O)c1` [Structure 37b, 2-[3,4-bis(cyclopentyloxy)phenyl]methoxy-3'-carboxy-[1,1'-biphenyl]-6-propanoic acid] was tested, and the inhibition at 100 µM was 51%.
